Biological target: T1, mouse GnRH receptor (Mus musculus, UniProt Q01776)
T1 construct: expressed in transfected cells; host or cells: 293 cells
T1 sequence (Q01776 1-327): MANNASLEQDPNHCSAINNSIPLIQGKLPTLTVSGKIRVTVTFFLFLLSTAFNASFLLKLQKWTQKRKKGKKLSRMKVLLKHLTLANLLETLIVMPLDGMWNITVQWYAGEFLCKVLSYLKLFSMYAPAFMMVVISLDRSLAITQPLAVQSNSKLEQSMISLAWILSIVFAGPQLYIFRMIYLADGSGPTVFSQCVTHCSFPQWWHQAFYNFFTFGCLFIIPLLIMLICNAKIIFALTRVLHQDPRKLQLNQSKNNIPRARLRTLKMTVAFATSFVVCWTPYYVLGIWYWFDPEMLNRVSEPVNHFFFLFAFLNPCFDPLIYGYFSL
Assay: Radioligand binding, 125I-GnRH-A, 293 cells expressing mouse GnRH receptors
Conditions: for remaining activity at 10 µM: 1 h, substrate remaining, 10 uM compound, closer to zero = closer to 100% inhibition, read-out: S%R 10 uM mGnRHR; for inhibition at 10 µM: read-out: % Inhib. @ 10 uM mGnRH
Summary of the method: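 Bound label captured on 0.1% polyethyleneimine-treated GF/C filters, washed three times with PBS, counted. IC50 derived; identical set-up for every species.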

SMILES | remaining activity at 10 µM [%] | inhibition at 10 µM (10 uM) [%] | also measured
Cc1cc2c(cc1Cc1ccc(C(=O)NCc3ccc(C(=O)O)cc3)o1)C(C)(C)CCC2(C)C [Compound 497] | 2 |  | 
Cc1cc2c(cc1Cc1ccc(C(=O)N3CCN(C(c4ccccc4)c4ccc(Cl)cc4)CC3)o1)C(C)(C)CCC2(C)C (centres unmarked) |  | 4 | 
Cc1cc2c(cc1Cc1ccc(C(=O)NC(C)(CO)CO)o1)C(C)(C)CCC2(C)C [Compound 564] | 45 |  | 
Cc1cc2c(cc1Cc1ccc(C(=O)N(Cc3cccc4ccccc34)C3CCN(Cc4ccccc4)C3)o1)C(C)(C)CCC2(C)C (centres unmarked) [Compound 631] | 43 |  | 
CCN1CC(N(Cc2ccc(N(C)C)cc2)C(=O)c2ccc(Cc3cc4c(cc3C)C(C)(C)CCC4(C)C)o2)CN1CC [Compound 653] | 6 |  | 
Cc1ccc(N2CCN(C(=O)c3ccc(Cc4cc5c(cc4C)C(C)(C)CCC5(C)C)o3)CC2C)cc1 (centres unmarked) [drawing 1276] |  | 73 | 
Cc1cc2c(cc1Cc1ccc(C(=O)NCCC3=CCCCC3)o1)C(C)(C)CCC2(C)C [drawing 1448] |  | 84 | 
Cc1cc2c(cc1Cc1ccc(C(=O)N3CCCCC3C)o1)C(C)(C)CCC2(C)C (centres unmarked) |  | 100 | 
Cc1cc2c(cc1Cc1ccc(C(=O)N3CCCCC3CO)o1)C(C)(C)CCC2(C)C (centres unmarked) |  | 84 | 
Cc1cc2c(cc1Cc1ccc(C(=O)NCCc3ccccc3Oc3ccccc3)o1)C(C)(C)CCC2(C)C [Compound 512] | 51 |  | 
Cc1cc2c(cc1Cc1ccc(C(=O)N3CCN(CC(=O)NC(C)C)CC3)o1)C(C)(C)CCC2(C)C |  | 63 | 
Cc1cc2c(cc1Cc1ccc(C(=O)N3CCC4(C)CC(C)(C)CC45CC35)o1)C(C)(C)CCC2(C)C (centres unmarked) [Compound 634] | 1 |  | 
Cc1cc2c(cc1Cc1ccc(C(=O)NCCc3c[nH]c4ccc(O)cc34)o1)C(C)(C)CCC2(C)C [drawing 1526] |  | 84 | 
Cc1cc2c(cc1Cc1ccc(C(=O)NC(CO)C(C)(C)C)o1)C(C)(C)CCC2(C)C (centres unmarked) |  | 101 | 
Cc1cc2c(cc1Cc1ccc(C(=O)NCC3CN(Cc4ccccc4)CCO3)o1)C(C)(C)CCC2(C)C (centres unmarked) [Compound 499] | 1 |  | 
Cc1cc2c(cc1Cc1ccc(C(=O)NCCN(C(C)C)C(C)C)o1)C(C)(C)CCC2(C)C |  | 102 | 
Cc1cc2c(cc1Cc1ccc(C(=O)N3CCC[C@H]3CO)o1)C(C)(C)CCC2(C)C |  | 93 | 
Cc1cc2c(cc1Cc1ccc(C(=O)NCCc3c[nH]cn3)o1)C(C)(C)CCC2(C)C [Compound 513] | 9 |  | 
Cc1cc2c(cc1Cc1ccc(C(=O)N(Cc3ccsc3)C3CCN(Cc4ccccc4)C3)o1)C(C)(C)CCC2(C)C (centres unmarked) [Compound 612] | 9 |  | 
Cc1cc2c(cc1Cc1ccc(C(=O)N[C@H](C)c3ccc([N+](=O)[O-])cc3)o1)C(C)(C)CCC2(C)C |  | 44 | 
Cc1cc2c(cc1Cc1ccc(C(=O)N3CCCCC3C(=O)NC(c3ccccc3)c3ccccc3)o1)C(C)(C)CCC2(C)C (centres unmarked) [drawing 1436] |  | 43 | 
Cc1cc2c(cc1Cc1ccc(C(=O)N3CC(C)OC(C)C3)o1)C(C)(C)CCC2(C)C (centres unmarked) [drawing 1426] |  | 84 | 
Cc1cc2c(cc1Cc1ccc(C(=O)N(CCCN3CCN(C)CC3)Cc3ccc(F)cc3)o1)C(C)(C)CCC2(C)C [Compound 583] | -3 |  | 

SMILES | remaining activity at 10 µM [%] | inhibition at 10 µM (10 uM) [%] | also measured
Cc1cc2c(cc1Cc1ccc(C(=O)N3CC=CCC3)o1)C(C)(C)CCC2(C)C [drawing 1430] |  | 69 | 
Cc1cc2c(cc1Cc1ccc(C(=O)N(CCCO)CCC(C)CCCC(C)(C)O)o1)C(C)(C)CCC2(C)C (centres unmarked) |  | 99 | 
Cc1cc2c(cc1Cc1ccc(C(=O)N(CCC(c3ccccc3)c3ccccc3)Cc3ccc4c(c3)OCO4)o1)C(C)(C)CCC2(C)C |  | 25 | 
CC(=O)N(C)C1CCN(C(=O)c2ccc(Cc3cc4c(cc3C)C(C)(C)CCC4(C)C)o2)C1 (centres unmarked) [drawing 1441] |  | 74 | 
Cc1cc2c(cc1Cc1ccc(C(=O)NCC(O)CO)o1)C(C)(C)CCC2(C)C (centres unmarked) |  | 14 | 
COc1ccc(CCN(CC(C)c2ccccc2)C(=O)c2ccc(Cc3cc4c(cc3C)C(C)(C)CCC4(C)C)o2)cc1OC (centres unmarked) |  | 72 | 
Cc1cc2c(cc1Cc1ccc(C(=O)N(C)C3CCN(C)CC3)o1)C(C)(C)CCC2(C)C [Compound 548] | 12 |  | 
Cc1cc2c(cc1Cc1ccc(C(=O)N(CC#N)Cc3ccccc3)o1)C(C)(C)CCC2(C)C [Compound 559] | 26 |  | 
Cc1cc2c(cc1Cc1ccc(C(=O)NCC3(O)CCCCC3)o1)C(C)(C)CCC2(C)C [drawing 1445] |  | 65 | 
Cc1cc2c(cc1Cc1ccc(C(=O)NC3C4CC5CC6CC(C5)C643)o1)C(C)(C)CCC2(C)C (centres unmarked) |  | 37 | 
CC1(C)CCC(C)(C)c2cc(Cc3ccc(C(=O)NC4c5ccccc5-c5ccccc54)o3)ccc21 |  | 53 | 
Cc1cc2c(cc1Cc1ccc(C(=O)NCCCCCO)o1)C(C)(C)CCC2(C)C [drawing 1437] |  | 99 | 
Cc1cc2c(cc1Cc1ccc(C(=O)NC(C)(C)CC(C)(C)C)o1)C(C)(C)CCC2(C)C [drawing 1577] |  | 66 | 
Cc1cc2c(cc1Cc1ccc(C(=O)NCCCN(C)C)o1)C(C)(C)CCC2(C)C |  | 99 | 
CCCC(CO)NC(=O)c1ccc(Cc2cc3c(cc2C)C(C)(C)CCC3(C)C)o1 (centres unmarked) [Compound 673] | 2 |  | 
Cc1cc2c(cc1Cc1ccc(C(=O)N3CCC(n4c(=O)[nH]c5ccccc54)CC3)o1)C(C)(C)CCC2(C)C [Compound 670] | 16 |  | 
Cc1cc2c(cc1Cc1ccc(C(=O)N(CCO)CCO)o1)C(C)(C)CCC2(C)C |  | 34 | 
CSCCNC(=O)c1ccc(Cc2cc3c(cc2C)C(C)(C)CCC3(C)C)o1 [Compound 648] | 4 |  | 
Cc1cc2c(cc1Cc1ccc(C(=O)NC3CCN(Cc4ccccc4)C3)o1)C(C)(C)CCC2(C)C (centres unmarked) [Compound 699] | -1 |  | 
Cc1cc2c(cc1Cc1ccc(C(=O)NC(CCCNC(N)N)C(=O)O)o1)C(C)(C)CCC2(C)C (centres unmarked) [Compound 459] | 53 |  | 
COc1ccc(C(NC(=O)c2ccc(Cc3cc4c(cc3C)C(C)(C)CCC4(C)C)o2)C2CC2)cc1 (centres unmarked) [Compound 578] | 17 |  | 
C#CCN(C)C(=O)c1ccc(Cc2cc3c(cc2C)C(C)(C)CCC3(C)C)o1 |  | 83 | 
COCC(C)NC(=O)c1ccc(Cc2cc3c(cc2C)C(C)(C)CCC3(C)C)o1 (centres unmarked) [drawing 1454] |  | 91 | 

SMILES | remaining activity at 10 µM [%] | inhibition at 10 µM (10 uM) [%] | also measured
CCN1CC(N(CCC(C)CCCC(C)(C)O)C(=O)c2ccc(Cc3cc4c(cc3C)C(C)(C)CCC4(C)C)o2)CN1CC (centres unmarked) [Compound 660] | -4 |  | 
Cc1cc2c(cc1Cc1ccc(C(=O)NCCCCCO)o1)C(C)(C)CCC2(C)C [Compound 593] | 2 |  | 
COc1cccc(CN(Cc2cccc(Oc3cccc(C(F)(F)F)c3)c2)C(=O)c2ccc(Cc3cc4c(cc3C)C(C)(C)CCC4(C)C)o2)c1OC [drawing 1307] |  | 75 | 
Cc1cc2c(cc1Cc1ccc(C(=O)N3CCN(c4ccc(OCc5ccccc5)cc4)CC3)o1)C(C)(C)CCC2(C)C |  | 44 | 
CCN(Cc1ccccc1F)C(=O)c1ccc(Cc2cc3c(cc2C)C(C)(C)CCC3(C)C)o1 |  | 86 | 
Cc1cc2c(cc1Cc1ccc(C(=O)N(Cc3ccc(C(C)C)cc3)C3CCN(Cc4ccccc4)C3)o1)C(C)(C)CCC2(C)C (centres unmarked) [Compound 638] | 53 |  | 
CCC(C)CNC(=O)c1ccc(Cc2cc3c(cc2C)C(C)(C)CCC3(C)C)o1 (centres unmarked) [drawing 1499] |  | 73 | 
Cc1cc2c(cc1Cc1ccc(C(=O)N(CCN(C)C)Cc3ccccc3[N+](=O)[O-])o1)C(C)(C)CCC2(C)C [drawing 1491] |  | 103 | 
Cc1cc2c(cc1Cc1ccc(C(=O)N(CCN3CCOCC3)Cc3ccccc3)o1)C(C)(C)CCC2(C)C [drawing 1461] |  | 91 | 
Cc1cc2c(cc1Cc1ccc(C(=O)NC(CO)C(C)C)o1)C(C)(C)CCC2(C)C (centres unmarked) [drawing 1479] |  |  | % Inhib. @ 10 uM mGnRH (10 uM): 103%
Cc1cc2c(cc1Cc1ccc(C(=O)N3CCN(C(c4ccc(F)cc4)c4ccc(F)cc4)CC3)o1)C(C)(C)CCC2(C)C |  | 16 | 
Cc1cc2c(cc1Cc1ccc(C(=O)N(Cc3ccc(C(C)C)cc3)C3CCN(Cc4ccccc4)C3)o1)C(C)(C)CCC2(C)C (centres unmarked) [drawing 1564] |  | 48 | 
Cc1cc2c(cc1Cc1ccc(C(=O)N3CCC(C(N)=O)CC3)o1)C(C)(C)CCC2(C)C [Compound 463] | -5 |  | 
Cc1cc2c(cc1Cc1ccc(C(=O)NCCc3ccc(Cl)cc3Cl)o1)C(C)(C)CCC2(C)C [Compound 524] | 35 |  | 
Cc1cc2c(cc1Cc1ccc(C(=O)N(CCC#N)Cc3ccccc3)o1)C(C)(C)CCC2(C)C |  | 74 | 
Cc1cc2c(cc1Cc1ccc(C(=O)N3CCC(O)(c4ccc(Cl)cc4)CC3)o1)C(C)(C)CCC2(C)C [Compound 569] | 58 |  | 
Cc1cc2c(cc1Cc1ccc(C(=O)N3CCC(NC(=O)C(F)(F)F)C3)o1)C(C)(C)CCC2(C)C (centres unmarked) [Compound 661] | 41 |  | 
Cc1cc2c(cc1Cc1ccc(C(=O)N(Cc3ccccc3Cl)CC(c3ccccc3)c3ccccc3)o1)C(C)(C)CCC2(C)C |  | 8 | 
Cc1cc2c(cc1Cc1ccc(C(=O)N3CCCC(C(N)=O)C3)o1)C(C)(C)CCC2(C)C (centres unmarked) |  | 69 | 
COCCN1CCN(C(=O)c2ccc(Cc3cc4c(cc3C)C(C)(C)CCC4(C)C)o2)CC1 |  | 81 | 
CSCCC(CO)NC(=O)c1ccc(Cc2cc3c(cc2C)C(C)(C)CCC3(C)C)o1 (centres unmarked) [drawing 1580] |  | 105 | 
Cc1cc2c(cc1Cc1ccc(C(=O)N(Cc3cccnc3)Cc3cccn3C)o1)C(C)(C)CCC2(C)C [Compound 688] | 0 |  | 

Source: patent US7101878B1 (Agouron Pharmaceuticals, Inc., priority 1998, dated 2006)
